ChEMBL document CHEMBL3132769, “Fragment growing to retain or alter the selectivity of anchored kinase hinge-binding fragments” (Medchemcomm, 2014)

Legend:
[1] = molecular target: Tyrosine-protein kinase BTK (Homo sapiens) (UniProt Q06187); experiment: Inhibition of human full length BTK expressed in baculovirus assessed as substrate phosphorylation using fluorescence-labelled peptides as substrate at 0.06 uM after 90 mins by microfluidic peptide phosphorylation assay
[2] = molecular target: T1, Serine/threonine-protein kinase BRSK2 (Homo sapiens) (UniProt Q8IWQ3); experiment: Inhibition of human truncated BRSK2 expressed in baculovirus assessed as substrate phosphorylation using fluorescence-labelled peptides as substrate at 0.06 uM after 90 mins by microfluidic peptide phosphorylation assay
T1 sequence (whole entry): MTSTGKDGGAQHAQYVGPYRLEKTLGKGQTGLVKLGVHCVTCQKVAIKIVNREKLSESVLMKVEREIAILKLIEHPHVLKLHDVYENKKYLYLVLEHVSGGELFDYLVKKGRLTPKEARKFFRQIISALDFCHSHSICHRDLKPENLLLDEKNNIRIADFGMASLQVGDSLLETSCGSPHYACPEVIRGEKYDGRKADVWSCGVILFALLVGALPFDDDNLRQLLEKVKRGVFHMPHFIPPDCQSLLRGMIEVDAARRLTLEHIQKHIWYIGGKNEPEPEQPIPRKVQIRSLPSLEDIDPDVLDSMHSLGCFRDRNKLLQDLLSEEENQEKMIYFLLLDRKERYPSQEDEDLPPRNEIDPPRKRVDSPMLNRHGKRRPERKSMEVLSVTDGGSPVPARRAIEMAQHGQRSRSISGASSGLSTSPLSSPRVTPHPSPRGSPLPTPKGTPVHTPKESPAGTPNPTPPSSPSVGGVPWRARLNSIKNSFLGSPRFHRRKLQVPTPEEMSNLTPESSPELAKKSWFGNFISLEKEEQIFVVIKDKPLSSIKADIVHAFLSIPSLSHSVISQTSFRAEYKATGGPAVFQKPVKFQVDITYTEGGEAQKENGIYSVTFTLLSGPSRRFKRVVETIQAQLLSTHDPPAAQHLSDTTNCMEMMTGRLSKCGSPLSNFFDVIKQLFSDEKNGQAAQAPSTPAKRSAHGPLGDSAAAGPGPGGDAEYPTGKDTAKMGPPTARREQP

[3] = molecular target: T2, Serine/threonine-protein kinase Sgk1 (Homo sapiens) (UniProt O00141); experiment: Inhibition of human truncated SGK1 expressed in baculovirus assessed as substrate phosphorylation using fluorescence-labelled peptides as substrate at 0.06 uM after 90 mins by microfluidic peptide phosphorylation assay
T2 sequence (whole entry): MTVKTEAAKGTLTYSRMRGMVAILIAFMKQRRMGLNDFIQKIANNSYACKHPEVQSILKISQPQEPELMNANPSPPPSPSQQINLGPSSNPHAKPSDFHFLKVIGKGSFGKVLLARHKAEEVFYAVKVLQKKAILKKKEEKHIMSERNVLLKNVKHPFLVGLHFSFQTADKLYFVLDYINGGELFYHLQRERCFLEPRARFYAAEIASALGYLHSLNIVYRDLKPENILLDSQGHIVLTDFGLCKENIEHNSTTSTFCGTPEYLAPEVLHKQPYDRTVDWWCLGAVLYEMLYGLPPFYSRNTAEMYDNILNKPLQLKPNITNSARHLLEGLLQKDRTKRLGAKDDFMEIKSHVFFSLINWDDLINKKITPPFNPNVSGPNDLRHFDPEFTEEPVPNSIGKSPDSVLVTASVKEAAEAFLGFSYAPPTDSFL

[4] = molecular target: Rho-associated protein kinase 2 (Homo sapiens) (UniProt O75116); experiment: Inhibition of human ROCK2 catalytic domain expressed in baculovirus assessed as substrate phosphorylation using fluorescence-labelled peptides as substrate at […] after 90 mins by microfluidic peptide phosphorylation assay
[5] = tested on: Fibroblast growth factor receptor 2 (Homo sapiens), P21802 [N549H]; experiment: Inhibition of human FGFR2 N549H mutant catalytic domain expressed in baculovirus assessed as substrate phosphorylation using fluorescence-labelled peptides as substrate at 9 uM after 90 mins by microfluidic peptide phosphorylation assay
[6] = molecular target: T3, Serine/threonine-protein kinase D1 (Homo sapiens) (UniProt Q15139); experiment: Inhibition of human full length PKD1 expressed in baculovirus assessed as substrate phosphorylation using fluorescence-labelled peptides as substrate at 70 uM after 90 mins by microfluidic peptide phosphorylation assay
T3 sequence (whole entry): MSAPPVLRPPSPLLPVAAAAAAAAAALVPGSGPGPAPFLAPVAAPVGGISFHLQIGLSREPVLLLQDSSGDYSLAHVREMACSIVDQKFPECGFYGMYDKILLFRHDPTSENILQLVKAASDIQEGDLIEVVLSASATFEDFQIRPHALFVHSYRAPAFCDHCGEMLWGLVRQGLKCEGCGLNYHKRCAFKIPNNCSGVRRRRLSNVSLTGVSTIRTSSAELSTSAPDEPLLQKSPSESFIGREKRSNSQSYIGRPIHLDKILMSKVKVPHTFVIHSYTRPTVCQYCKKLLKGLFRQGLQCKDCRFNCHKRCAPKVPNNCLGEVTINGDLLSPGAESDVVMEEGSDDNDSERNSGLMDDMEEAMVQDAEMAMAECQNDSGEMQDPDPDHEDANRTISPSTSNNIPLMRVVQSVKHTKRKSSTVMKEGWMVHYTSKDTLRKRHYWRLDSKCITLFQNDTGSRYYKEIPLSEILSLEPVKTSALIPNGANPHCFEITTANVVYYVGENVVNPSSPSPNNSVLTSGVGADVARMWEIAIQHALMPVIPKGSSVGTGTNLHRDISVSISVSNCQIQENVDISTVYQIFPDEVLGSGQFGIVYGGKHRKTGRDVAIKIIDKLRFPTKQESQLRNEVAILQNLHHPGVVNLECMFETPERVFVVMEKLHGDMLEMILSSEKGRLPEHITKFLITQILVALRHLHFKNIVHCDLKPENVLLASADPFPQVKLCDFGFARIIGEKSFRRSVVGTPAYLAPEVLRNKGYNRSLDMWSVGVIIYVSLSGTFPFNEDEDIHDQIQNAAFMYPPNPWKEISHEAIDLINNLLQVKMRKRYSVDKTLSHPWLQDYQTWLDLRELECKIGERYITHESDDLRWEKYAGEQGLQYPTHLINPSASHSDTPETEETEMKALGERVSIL

[7] = molecular target: Fibroblast growth factor receptor 4 (Homo sapiens) (UniProt P22455); experiment: Inhibition of human FGFR4 catalytic domain expressed in baculovirus assessed as substrate phosphorylation using fluorescence-labelled peptides as substrate at 8 uM after 90 mins by microfluidic peptide phosphorylation assay
[8] = molecular target: MAP kinase p38 (Homo sapiens) (UniProt O15264+Q15759+Q16539+P53778); experiment: Inhibition of human full length p38 beta2 expressed in Escherichia coli cell assessed as substrate phosphorylation using fluorescence-labelled peptides as substrate at 1000 uM after 90 mins by microfluidic peptide phosphorylation assay
Homo sapiens = species: Homo sapiens; experiment: Inhibition of human full length PKA expressed in baculovirus assessed as substrate phosphorylation using fluorescence-labelled peptides as substrate at 2 uM after 90 mins by microfluidic peptide phosphorylation assay
[9] = molecular target: Tyrosine-protein kinase ABL1 (Homo sapiens) (UniProt P00519); experiment: Inhibition of human full-length ABL expressed in baculovirus assessed as substrate phosphorylation using fluorescence-labelled peptides as substrate at 2 uM after 90 mins by microfluidic peptide phosphorylation assay
Tyrosine-protein kinase ABL1 (Homo sapiens), sequence (P00519 whole entry): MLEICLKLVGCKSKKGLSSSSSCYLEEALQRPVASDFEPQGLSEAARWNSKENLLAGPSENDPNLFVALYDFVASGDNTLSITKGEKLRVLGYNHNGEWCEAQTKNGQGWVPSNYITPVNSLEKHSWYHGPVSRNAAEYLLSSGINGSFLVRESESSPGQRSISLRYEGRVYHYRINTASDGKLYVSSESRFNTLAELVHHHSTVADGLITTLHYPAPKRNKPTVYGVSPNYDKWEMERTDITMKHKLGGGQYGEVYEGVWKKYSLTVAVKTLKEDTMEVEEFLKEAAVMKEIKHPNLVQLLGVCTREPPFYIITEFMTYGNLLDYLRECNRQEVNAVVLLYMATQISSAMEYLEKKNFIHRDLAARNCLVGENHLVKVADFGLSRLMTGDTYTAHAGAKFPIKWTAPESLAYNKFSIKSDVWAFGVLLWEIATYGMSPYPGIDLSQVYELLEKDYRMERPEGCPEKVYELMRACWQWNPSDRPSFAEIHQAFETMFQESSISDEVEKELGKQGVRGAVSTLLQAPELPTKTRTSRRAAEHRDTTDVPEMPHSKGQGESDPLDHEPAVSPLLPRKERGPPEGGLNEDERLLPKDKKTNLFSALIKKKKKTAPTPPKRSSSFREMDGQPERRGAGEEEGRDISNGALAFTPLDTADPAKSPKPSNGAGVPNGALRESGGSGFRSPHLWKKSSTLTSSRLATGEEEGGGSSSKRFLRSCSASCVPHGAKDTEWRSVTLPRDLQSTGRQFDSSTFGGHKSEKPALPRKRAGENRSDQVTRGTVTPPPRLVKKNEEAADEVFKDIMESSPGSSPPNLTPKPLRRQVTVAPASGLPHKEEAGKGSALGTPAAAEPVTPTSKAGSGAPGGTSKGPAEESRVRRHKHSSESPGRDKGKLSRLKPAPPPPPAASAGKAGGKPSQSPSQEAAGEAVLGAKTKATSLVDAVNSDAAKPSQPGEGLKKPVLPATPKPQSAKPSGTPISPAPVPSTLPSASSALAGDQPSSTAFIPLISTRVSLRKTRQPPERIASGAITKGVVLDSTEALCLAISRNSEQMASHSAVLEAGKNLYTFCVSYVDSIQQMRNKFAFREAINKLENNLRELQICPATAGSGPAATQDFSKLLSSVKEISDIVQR

Rho-associated protein kinase 2 (Homo sapiens), sequence (O75116 whole entry, looked up, the tested form may be a part): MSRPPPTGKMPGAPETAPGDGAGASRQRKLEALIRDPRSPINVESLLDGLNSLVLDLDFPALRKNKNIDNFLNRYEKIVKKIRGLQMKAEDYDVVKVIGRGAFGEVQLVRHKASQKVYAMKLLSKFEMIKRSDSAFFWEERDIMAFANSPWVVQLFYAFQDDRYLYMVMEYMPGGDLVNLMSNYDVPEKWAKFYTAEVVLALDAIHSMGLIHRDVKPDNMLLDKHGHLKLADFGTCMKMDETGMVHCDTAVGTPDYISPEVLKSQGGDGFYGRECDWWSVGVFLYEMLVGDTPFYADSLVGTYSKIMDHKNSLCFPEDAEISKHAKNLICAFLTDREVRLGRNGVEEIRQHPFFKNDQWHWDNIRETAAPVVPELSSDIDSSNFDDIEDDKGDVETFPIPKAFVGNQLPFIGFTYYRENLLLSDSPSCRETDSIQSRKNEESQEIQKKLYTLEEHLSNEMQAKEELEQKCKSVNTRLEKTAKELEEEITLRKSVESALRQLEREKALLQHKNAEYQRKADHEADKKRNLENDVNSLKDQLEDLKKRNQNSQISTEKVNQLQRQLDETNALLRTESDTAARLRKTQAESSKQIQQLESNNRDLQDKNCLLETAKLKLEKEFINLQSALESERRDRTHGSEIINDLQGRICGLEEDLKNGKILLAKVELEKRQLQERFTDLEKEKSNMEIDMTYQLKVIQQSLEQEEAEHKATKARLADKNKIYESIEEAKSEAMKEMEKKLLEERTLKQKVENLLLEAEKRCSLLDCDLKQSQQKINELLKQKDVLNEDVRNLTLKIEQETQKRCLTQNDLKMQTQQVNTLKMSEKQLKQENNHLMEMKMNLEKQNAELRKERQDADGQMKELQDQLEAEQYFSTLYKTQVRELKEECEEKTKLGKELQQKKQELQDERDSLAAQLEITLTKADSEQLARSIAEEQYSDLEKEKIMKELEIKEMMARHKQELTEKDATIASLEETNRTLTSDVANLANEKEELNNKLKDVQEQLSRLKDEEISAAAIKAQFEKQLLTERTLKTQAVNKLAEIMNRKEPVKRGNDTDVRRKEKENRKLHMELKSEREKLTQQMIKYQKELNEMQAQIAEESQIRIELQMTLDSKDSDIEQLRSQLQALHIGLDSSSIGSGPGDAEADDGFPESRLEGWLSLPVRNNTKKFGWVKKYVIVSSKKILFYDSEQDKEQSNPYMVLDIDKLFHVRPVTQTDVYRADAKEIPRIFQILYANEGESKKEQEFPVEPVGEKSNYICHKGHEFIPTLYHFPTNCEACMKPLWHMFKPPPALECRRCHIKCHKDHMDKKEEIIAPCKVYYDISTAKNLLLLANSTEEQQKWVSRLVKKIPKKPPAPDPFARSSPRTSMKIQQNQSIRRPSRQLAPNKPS
Tyrosine-protein kinase BTK (Homo sapiens), sequence (Q06187 whole entry, the tested form may be a part): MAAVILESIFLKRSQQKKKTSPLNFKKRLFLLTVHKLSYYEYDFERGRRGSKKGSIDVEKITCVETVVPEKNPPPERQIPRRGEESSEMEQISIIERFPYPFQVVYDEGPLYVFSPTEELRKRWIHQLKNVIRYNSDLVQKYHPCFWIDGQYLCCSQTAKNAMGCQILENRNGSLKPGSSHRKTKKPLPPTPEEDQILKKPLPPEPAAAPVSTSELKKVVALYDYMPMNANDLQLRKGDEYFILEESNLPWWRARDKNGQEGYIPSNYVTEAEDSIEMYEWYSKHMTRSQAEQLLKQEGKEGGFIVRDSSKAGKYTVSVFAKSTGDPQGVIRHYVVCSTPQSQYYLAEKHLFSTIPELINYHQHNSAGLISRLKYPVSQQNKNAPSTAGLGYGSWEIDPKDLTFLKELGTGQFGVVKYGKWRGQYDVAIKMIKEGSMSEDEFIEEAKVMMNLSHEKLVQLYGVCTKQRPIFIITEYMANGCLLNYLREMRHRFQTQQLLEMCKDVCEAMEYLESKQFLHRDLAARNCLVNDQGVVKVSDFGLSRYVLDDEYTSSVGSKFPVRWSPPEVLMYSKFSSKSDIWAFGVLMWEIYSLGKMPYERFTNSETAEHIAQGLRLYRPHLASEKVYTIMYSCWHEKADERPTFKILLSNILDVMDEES
Fibroblast growth factor receptor 4 (Homo sapiens), sequence (P22455 22-802 limits assumed): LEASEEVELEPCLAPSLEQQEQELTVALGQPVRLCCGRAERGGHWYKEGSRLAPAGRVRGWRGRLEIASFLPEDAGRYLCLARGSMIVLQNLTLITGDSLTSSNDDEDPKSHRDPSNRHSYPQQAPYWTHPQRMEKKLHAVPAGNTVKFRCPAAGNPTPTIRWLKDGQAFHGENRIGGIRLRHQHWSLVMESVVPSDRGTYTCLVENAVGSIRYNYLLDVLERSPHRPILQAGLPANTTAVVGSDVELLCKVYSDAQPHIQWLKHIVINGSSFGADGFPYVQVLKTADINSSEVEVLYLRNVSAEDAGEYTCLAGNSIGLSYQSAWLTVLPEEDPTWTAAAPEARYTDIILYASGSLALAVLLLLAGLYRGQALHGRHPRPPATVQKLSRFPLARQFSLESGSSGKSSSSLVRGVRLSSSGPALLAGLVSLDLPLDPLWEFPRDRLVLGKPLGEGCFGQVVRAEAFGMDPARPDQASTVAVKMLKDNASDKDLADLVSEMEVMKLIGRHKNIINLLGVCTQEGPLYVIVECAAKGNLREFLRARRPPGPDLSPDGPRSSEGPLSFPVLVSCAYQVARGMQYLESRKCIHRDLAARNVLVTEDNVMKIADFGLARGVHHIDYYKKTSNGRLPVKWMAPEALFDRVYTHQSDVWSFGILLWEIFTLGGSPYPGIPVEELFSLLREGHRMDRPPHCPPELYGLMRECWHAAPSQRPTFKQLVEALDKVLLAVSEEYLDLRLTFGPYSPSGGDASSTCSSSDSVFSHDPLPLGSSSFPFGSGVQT
Fibroblast growth factor receptor 2 (Homo sapiens), P21802 [N549H], sequence (P21802 whole entry N549H, the tested form may be a part): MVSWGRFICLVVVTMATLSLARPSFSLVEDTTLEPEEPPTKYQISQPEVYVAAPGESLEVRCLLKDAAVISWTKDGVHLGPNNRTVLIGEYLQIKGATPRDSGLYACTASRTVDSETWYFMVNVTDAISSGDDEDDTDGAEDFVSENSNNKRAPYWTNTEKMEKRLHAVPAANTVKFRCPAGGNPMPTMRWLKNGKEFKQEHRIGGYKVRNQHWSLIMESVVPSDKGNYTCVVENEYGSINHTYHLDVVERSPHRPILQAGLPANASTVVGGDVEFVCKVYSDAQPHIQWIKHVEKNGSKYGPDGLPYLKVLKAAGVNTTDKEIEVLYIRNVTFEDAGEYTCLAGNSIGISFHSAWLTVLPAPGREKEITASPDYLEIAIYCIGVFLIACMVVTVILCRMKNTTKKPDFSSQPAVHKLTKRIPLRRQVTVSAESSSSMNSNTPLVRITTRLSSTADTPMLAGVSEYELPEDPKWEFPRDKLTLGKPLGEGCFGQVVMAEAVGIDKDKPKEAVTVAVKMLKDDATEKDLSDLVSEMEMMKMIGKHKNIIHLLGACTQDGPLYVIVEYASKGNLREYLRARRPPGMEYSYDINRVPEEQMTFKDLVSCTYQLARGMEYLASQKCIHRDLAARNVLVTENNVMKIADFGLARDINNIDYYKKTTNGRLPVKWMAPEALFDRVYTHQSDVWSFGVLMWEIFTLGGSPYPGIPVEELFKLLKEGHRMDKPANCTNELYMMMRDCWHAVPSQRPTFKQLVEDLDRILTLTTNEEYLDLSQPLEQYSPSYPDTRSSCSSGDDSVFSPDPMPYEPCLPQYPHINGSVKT

With `NC1(Cc2ccc(Cl)cc2)CCN(c2ncnc3[nH]ccc23)CC1` the inhibition [1] was 0%, the inhibition [2] was 0% and the inhibition [3] was 56%.
`COC(=O)c1cnc(Nc2cnc(C#N)cn2)cc1NCC1CCNCC1` was tested, and the inhibition [4] was 2%.
Work on `NCC1CN(c2ncnc3[nH]c4cnccc4c23)CCO1` (stereo not given) yielded an inhibition [5] of 47.5%.
In the case of `CNCc1ccc(-c2ncnc3[nH]cnc23)cc1`, the inhibition [6] is reported as 54.5%.
Work on `NCC1CCN(c2ncnc3[nH]ccc23)CC1` yielded an inhibition [7] of 27.5%.
For `c1cnc2[nH]ccc2c1`, the inhibition [8] was 0%.
In the case of `NC1CCN(c2ncnc3[nH]ccc23)CC1`, the inhibition (Homo sapiens) is reported as 21% and the inhibition [9] is reported as 13.5%.
